In patent publication US20240293362A1, “Soluble Epoxide Hydrolase Inhibitors and Use Thereof” (Board of Trustees of Michigan State University, priority 2021, published 2024):

Compound | melting point
CCC(=O)NCC1CCN(C(=O)Nc2ccc(OC(F)(F)F)cc2)C1 (stereo not drawn) [Example 12, 3-(propanamidomethyl)-N-[4-(trifluoromethoxy)phenyl]pyrrolidine-1-carboxamide] | 166 to 167 °C
CCC(=O)N1CC[C@@H](NC(=O)Nc2ccc(OC(F)(F)F)cc2)[C@@H](F)C1 [Example 45, 1-((3S,4R)-3-fluoro-1-propionylpiperidin-4-yl)-3-(4-(trifluoromethoxy)phenyl)urea] | 231 to 232 °C
CCC(=O)N1CC[C@H](NC(=O)Nc2ccc(OC(F)(F)F)cc2)[C@H](F)C1 [Example 46, 1-((3R,4S)-3-fluoro-1-propionylpiperidin-4-yl)-3-(4-(trifluoromethoxy)phenyl)urea] | 245 to 246 °C
CCC(=O)N1CC[C@H](NC(=O)Nc2ccc(OC(F)(F)F)cc2)C[C@H]1C [Example 48, 1-((2R,4S)-2-methyl-1-propionylpiperidin-4-yl)-3-(4-(trifluoromethoxy)phenyl)urea] | 175 to 176 °C

Next, values leading:

melting point | Compound
223 to 224 °C | CCC(=O)N1CCC(NC(=O)Nc2ccc(OC(F)(F)F)cc2)C(F)(F)C1 (stereo not drawn) [Example 44, 1-(3,3-difluoro-1-propionylpiperidin-4-yl)-3-(4-(trifluoromethoxy)phenyl)urea]
180 to 181 °C | CCC(=O)N1CC[C@H](NC(=O)Nc2ccc(OC(F)(F)F)cc2)[C@@H](F)C1 [Example 47, 1-((3S,4S)-3-fluoro-1-propionylpiperidin-4-yl)-3-(4-(trifluoromethoxy)phenyl)urea]
